# Read-outs that look alike come from different tables or passages of the source.
# Assays:
# [1] = system: IFN-γ production in human peripheral blood mononuclear cells (PBMCs); test: Experiment 1: IFN-γ production by PHA-stimulated human PBMCs, ELISA; assay type: cell-based; conditions: for IFN-γ Concentration, Mean: mean of first three subjects, 24 h
# Procedure: The ex vivo activity of various compounds towards suppression of IFN-γ production in human peripheral blood mononuclear cells (PBMCs) was studied.
# […] They were not taking any other prescribed medication that could interfere with the results.
# The blood was transferred into 50 ml centrifuge tubes (Corning, USA) containing heparin sodium salt 37.5 mg heparin powder diluted in 300-500 μl phosphate buffered saline (PBS) for 50 ml blood), and centrifuged at 2000 rpm for 10 minutes, and the plasma portion was separated. The plasma was further centrifuged at 3000 rpm for 10 minutes, and the supernatant separated and kept for later use.
# The blood cells from the initial centrifugation were diluted with an equal volume of RPMI-1640 (Sigma, UK), and layered (2:1) onto Lymphoprep (Axis-Shield, Norway) in 25 ml universal tubes (Bibby Sterilin, UK) for density gradient centrifugation at 2500 rpm for 30 minutes.
# PBMCs (lymphocytes and monocytes) were then removed from the interface, diluted in an equal volume of RPMI-1640 and washed twice by centrifugation at 3000 rpm for 10 minutes.
# For testing, the PBMCs were re-suspended in a known volume of culture medium containing RPMI-1640 supplemented with 2 mM L-glutamine, 100 U penicillin, and 100 μg streptomycin (Sigma, UK).
# The cell count was determined by the use of a haemocytometer using 10 μl of the cell suspension. The number of cells was determined based on a count in 5 random 1 mm squares.
# The cell solution was then diluted with the supplemented RPMI-1640 medium to ensure a cell count of 2×10^6 cells/ml.
# The PBMC suspension was added to tissue culture tubes (Bibby Sterilin, UK) with 5% autologous plasma, 5 μg/mlphytohaemaglutinin (PHA) to stimulate T-lymphocyte IFN-γ production, and a solution containing various concentrations of the compound to be studied. A control containing no compound was also cultured for each subject.
# In the case of lamotrigine, the isethionate salt was used, and diluted with RPMI-1640 to produce 100 μM, 30 μM, 10 μM and 3 μM solutions that were tested on PBMCs from the first three subjects. With PBMC's from the other two subjects, a 300 μM solution was also tested.
# For sipatrigine, the mesylate salt was used, and diluted with RPMI-1640 to produce 30 μM, 10 μM, 3 μM and 1 μM solutions. It was tested on PBMCs from the first three subjects only.
# The tubes were incubated at 37° C. for 24 hours under a 5% CO2 atmosphere. After incubation, the cells (>75% viable according to trypan blue test) were centrifuged at 3000 prm for 10 minutes, and the cell-free supernatants were collected and stored at −70° C. before analysis for IFN-γ.
# Levels of IFN-γ produced by the PBMCs were determined by the DuoSet ELISA Development system for human IFN-γ (RD Systems, UK), with a sensitivity of 15.6-1000 pg/ml.
# Capture antibody, detection antibody, standard and streptavidin-HRP (streptavidin conjugated to horseradish peroxidase) were provided. A 96-well microtitre plate (Corning CoStar, flat bottom, polystyrene, high binding microtitre plate, UK) was coated with 100 μl per well of capture antibody (mouse anti-human IFN-γ at 4.0 μg/ml), sealed and incubated overnight. Unbound capture antibody was washed from the wells three times, using a wash buffer (0.05% Tween 20 in PBS). Block buffer (1% bovine serum albumin (BSA) in PBS) was then added. After incubation for 1 hour, the wells were washed, and sample culture supernatants or standards were added. A 7-point standard curve (in the range 15.6-1000 pg/ml) was produced from […] recombinant human IFN-γ using 2-fold serial dilutions in reagent diluent (0.1% BSA, 0.05% Tween 20 in tris-buffered saline (20 mM Trizma base, 150 mM NaCl)). The sealed plates were left to incubate for 2 hours.
# After further washing, the detection antibody (biotinylated goat anti-human IFN-γ at 175 ng/ml) was added, and the plates sealed and incubated for a further 2 hours. […]
# [2] = system: IFN-γ production in human peripheral blood mononuclear cells (PBMCs); test: Experiment 2: IFN-γ production by PHA-stimulated human PBMCs, ELISA; assay type: cell-based; conditions: for [IFN-γ]: PHA 5 μg/ml; for inhibition of IFN-γ production in PBMCs (in words): Experiment 2, human PBMCs; for IC50: human PBMCs, PHA-stimulated, read-out: IC50 (concentration to inhibit IFN-γ production by 50%)
# Procedure: A similar set of tests were carried out, in which three compounds known as CEN-079(3,5-diamino-6-[2-(3,4,5-trichlorothienyl)]-1,2,4-triazine), CEN-092(3,5-diamino-6-(3,5-bistrifluoromethylphenyl)-1,2,4-triazine) and CEN-216(3,5-diamino-6-(2,3-dichlorophenyl)-2,3(2,5)-dihydro-3(5)-imino-2-(2,2,2-trichloroethyl)-1,2,4-triazine) were compared with lamotrigine. CEN-079, CEN-092 and CEN-216 are within the scope of Formulae 1, 2 and 3.
# 50 ml of blood from three healthy adult donors was collected by venepuncture in heparinised tubes. The blood samples where centrifuged at 3000 rpm for 15 minutes. The supernatant plasma was collected in a centrifuge tube, and centrifuged at 3000 rpm for a further 10 minutes. The supernatant was then collected in a plain tube, and stored at −70° C. for future use.
# The cells from the first centrifuged heparinised tube were diluted 1:1 in RPMI-1640, and mixed by multiple inversions. The cell mixture was then slowly layered, using a sterile plastic 3 ml pipette, along a tube wall containing lymphoprep (Nycomed) at a ratio of 2:1 cells/RPMI-1640:Lymphoprep in a 25 ml universal tube. The mixture was centrifuged at 2400 rpm for 30 minutes, and left to stand for 20 minutes. PBMCs were slowly removed from the interface using a sterile plastic pipette, and collected in a 15 ml centrifuge tube.
# The cells were washed twice by diluting in RPMI-1640 with 2 mM L-glutamine, 100 U/ml penicillin and 100 μg/ml streptomycin at a ratio of 1:1. The mixture was centrifuged at 3000 rpm for 15 minutes, and the supernatant decanted. PBMCs were then diluted in RPMI-1640 containing 2 mM L-glutamine, 100 U/ml penicillin and 100 μg streptomycin, to make up a volume of 6 ml for subjects 1 and 2, and 9 ml for subject 3.
# Cells were counted using an Improved Neubauer haemocytometer (Hawksley, UK) on a light microscope. 10 μl of cell suspension was loaded onto the haemocytometer using a sterile plastic pipette. Cells were counted in five out of 25 1 mm squares, from which the total cell count was calculated.
# 5 μg/ml PHA was used as a T cell activating agent for the production of IFN-γ. The PBMCs were treated with the four test compounds (lamotrigine, CEN-079, CEN-092, CEN-216) at concentrations of 10 μM, 30 μM and 300 μM to assess their effects on IFN-γ production by the stimulated T cells.
# The tests were carried out as for Experiment 1, in which 2×10^6 PBMC/ml, 25 μl of 5% autologous plasma, and 2.63 μl of 5 μg/ml PHA were used. Test compound at each concentration was then added, except for one control case.
# 10 μM solutions were obtained by adding 1.05 μl of a 5 mM solution of the compounds to the above PBMC-containing solution. 30 μM solutions were obtained by adding 3.15 μl of the 5 mM solution of the compounds. 300 μM solutions were obtained by adding […] solutions of the compounds.
# The tubes were covered, gently shaken to mix the contents, and incubated for 24 hours at 37° C. The tubes were then centrifuged at 2500 rpm for 10 minutes. The supernatant was collected in a 3 ml plastic pipette, and aliquots were stored at −70° C. before being analysed.
# The test was performed according to the supplier's instructions. Donor samples were diluted 1:1 in phosphate buffered […] (PBS) and assayed simultaneously with IFN-γ standard samples, in duplicate. The standard curve ranged from 15.6 pg/ml to 1000 pg/ml.
# A 96-well multiwell microplate (high binding Costar) was prepared, by diluting a capture antibody (720 μg/ml of mouse anti-human IFN-γ) in PBS to a working concentration of 4.0 μg/ml. 100 μl was immediately coated on each well, and left overnight at room temperature. The wells were washed three times in wash buffer, using microplate autowasher (LT-3000, LabTech International Ltd). The remainder of the wash buffer in the wells was removed by blotting on to clean paper towels. The plate was blocked by adding 300 μl Block buffer (1% BSA in PBS) to each well and incubated at room temperature for 1 hour. […]
Compound,"[IFN-γ] vs control ([2]; 10 μM, Subject 1, 24 h) [%]","[IFN-γ] ([2]; 10 μM, Subject 1, 24 h) [pg/mL]","[IFN-γ] vs control ([2]; 10 μM, Subject 2, 24 h) [%]","[IFN-γ] ([2]; 10 μM, Subject 2, 24 h) [pg/mL]","[IFN-γ] vs control ([2]; 10 μM, Subject 3, 24 h) [%]","[IFN-γ] ([2]; 10 μM, Subject 3, 24 h) [pg/mL]","[IFN-γ] vs control ([2]; 30 μM, Subject 1, 24 h) [%]","[IFN-γ] ([2]; 30 μM, Subject 1, 24 h) [pg/mL]","[IFN-γ] vs control ([2]; 30 μM, Subject 2, 24 h) [%]","[IFN-γ] ([2]; 30 μM, Subject 2, 24 h) [pg/mL]","[IFN-γ] vs control ([2]; 30 μM, Subject 3, 24 h) [%]","[IFN-γ] ([2]; 30 μM, Subject 3, 24 h) [pg/mL]","[IFN-γ] vs control ([2]; 300 μM, Subject 1, 24 h) [%]","[IFN-γ] ([2]; 300 μM, Subject 1, 24 h) [pg/mL]","[IFN-γ] vs control ([2]; 300 μM, Subject 2, 24 h) [%]","[IFN-γ] ([2]; 300 μM, Subject 2, 24 h) [pg/mL]","[IFN-γ] vs control ([2]; 300 μM, Subject 3, 24 h) [%]","[IFN-γ] ([2]; 300 μM, Subject 3, 24 h) [pg/mL]",inhibition of IFN-γ production in PBMCs (in words) [2],also measured
"CN1CCN(c2ncc(-c3cc(Cl)cc(Cl)c3Cl)c(N)n2)CC1 [Sipatrigine, 4-amino-2-(4-methyl-1-piperazinyl)-(2,3,5-trichlorophenyl)-pyrimidine]",,,,,,,,,,,,,,,,,,,,"IFN-γ Concentration, Mean ([1]; 1 μM): 1275.07 pg/mL; IFN-γ Concentration, Mean ([1]; 3 μM): 1227.27 pg/mL; IFN-γ Concentration, Mean ([1]; 10 μM): 1331.70 pg/mL; IFN-γ Concentration, Mean ([1]; 30 μM): 892.89 pg/mL; inhibition of IFN-γ production (in words) ([1]; Experiment 1, human PBMCs): did not inhibit IFN-γ production"
"N=c1nc(N)c(-c2cccc(Cl)c2Cl)nn1CC(Cl)(Cl)Cl [CEN-216, 5(3)-Amino-6-(2,3-dichlorophenyl)-2,3(2,5)-dihydro-3(5)-imino-2-(2,2,2-trichloroethyl)-1,2,4-triazine]",0.0,0.00,9.2,187.0,3.9,82.0,0.0,0.00,2.9,59.0,5.7,122.0,0.0,0.00,0.0,0.0,0.0,0.0,significantly more effective inhibitors compared to lamotrigine,
"Nc1nnc(-c2sc(Cl)c(Cl)c2Cl)c(N)n1 [CEN-079, 3,5-diamino-6-[2-(3,4,5-trichlorothienyl)]-1,2,4-triazine]",22.1,154.5,36.9,757.5,28.7,611.5,7.60,53,1.80,178.5,2.0,41.5,0.0,0.00,0.0,0.0,0.0,0.0,significantly more effective inhibitors compared to lamotrigine,IC50 [2]: 6 µM
"Nc1nnc(-c2cc(C(F)(F)F)cc(C(F)(F)F)c2)c(N)n1 [CEN-092, 3,5-diamino-6-(3,5-bistrifluoromethylphenyl)-1,2,4-triazine]",16.1,112.5,36.0,728.5,19.9,423.5,7.4,52.0,24.6,499.0,4.3,91.5,0.0,0.00,0.0,0.0,6.9,146.0,significantly more effective inhibitors compared to lamotrigine,IC50 ([2]; PBMC): 3 µM
